Test results published in patent US20110269699A1, “CANCER THERAPY” (priority 2008, published 2011).

Columns and labels:
Type in all cases: cell-based, mouse
[1] = tested on: 4242Eμ-myc/Bcl-XL lymphomas; experiment: In vitro cell death analysis of Bcl-XL overexpressing lymphomas
Text: (§1) To determine if increased expression of Bcl-XL could confer resistance to romidepsin, 4242Eμ-myc/Bcl-XL lymphomas were produced and tested for sensitivity to HDACi.
(§2) […] Viability of cells as measured by trypan blue exclusion assay, propidium iodide uptake, Annexin V staining, cell cycle analysis, or tetramethylrhodamine ethyl ester staining were done as described (Lindemann et al., Proc. Nat. Acad. Sci. USA 104:8071-8078, 2007).

[2] = tested on: Eμ-myc/Bcl-2 lymphomas; experiment: In vitro cell death analysis (propidium iodide staining, loss of MOMP)
Method: (§3) Three different primary Eμ-myc lymphomas overexpressing Bcl-2 and control vector-transduced Eμ-myc cells were tested for sensitivity to the histone deacetylase inhibitors (HDACi) oxamflatin and romidepsin.
(§4) The primary function of prosurvival Bcl-2 proteins is to inhibit the activity of Bak and Bax proteins and thereby protect the mitochondrial membrane from damage (Cory et al., Nat. Rev. Cancer 2:647-656, 2002). To determine if the induction of apoptosis mediated by romidepsin in 4242Eμ-myc/Bcl-2 and 229Eμ-myc/Bcl-2 lymphomas was via perturbation of the mitochondrial membrane or through some other mechanism, HDACi-induced mitochondrial outer membrane permeabilization (MOMP) was quantitated by staining with tetramethylrhodamine ethyl ester (Molecular Probes).
as §2

[3] = tested on: Eμ-myc lymphomas; experiment: as above
Method: as §3, §4, §2

[4] = tested on: acetylated histones H3 and H4; experiment: Western blot analysis of histone acetylation status; conditions: 4242Eμ-myc lymphomas; 3.0 nmol/L romidepsin, 0.1 mmol/L oxamflatin; 24-h time course
Method: Eμ-myc lymphoma cells were lysed in lysis buffer [0.15 mol/L NaCl, 10 mmol/L Tris-HCl (pH 7.4), 5 μmol/L EDTA, 1% Triton X-100] supplemented with protease inhibitors (leupeptin, pepstatin, and phenylmethylsulfonyl fluoride; Sigma-Aldrich) as described previously (Lindemann et al., Proc. Nat. Acad. Sci. USA 104:8071-8078, 2007). Proteins (30-50 μg) were separated on 10% or 15% SDS polyacrylamide gels electroblotted onto Immobilon-P […] membranes (Millipore). Membranes were incubated with the following antibodies: anti-mouse Bcl-2 (BD PharMingen), anti-mouse Bcl-XL (BD PharMingen), anti-mouse Bcl-w (Chemicon Australia), anti-mouse Mcl-1 (Rockland), anti-mouse A1 (Sapphire Biosciences), anti-Flag tag (Sigma-Aldrich), anti-acetylated histone H3 and antiacetylated histone H4 (Upstate Biosystems), anti-β actin (Sigma-Aldrich), and anti-tubulin (Sigma-Aldrich) overnight at 4° C. followed by subsequent incubation with horseradish peroxidase-conjugated secondary antibodies (DAKO) Immunoreactive bands were visualized by enhanced chemiluminescence (Amersham).

[5] = tested on: 4242Eμ-myc lymphomas; experiment: In vitro cell death analysis (parental control of the Bcl-XL experiment)
Method: as §1
Eμ-myc lymphoma cells (5×10^5/mL) were incubated in the presence of the indicated compounds for 20 h in 1 mL cell culture medium in 24-well plates (Greiner Bio-One). Viability of cells as measured by trypan blue exclusion assay, propidium iodide uptake, Annexin V staining, cell cycle analysis, or tetramethylrhodamine ethyl ester staining were done as described (Lindemann et al., Proc. Nat. Acad. Sci. USA 104:8071-8078, 2007).

[6] = tested on: 226Eμ-myc/Bcl-2 lymphomas; experiment: Cell cycle analysis of Eμ-myc/Bcl-2 cells treated with HDACi; conditions: 226/Bcl-2
Method: (§5) Next, the cell cycle profiles of Eμ-myc/Bcl-2 lymphomas treated with oxamflatin and romidepsin over 3 days were assessed.
as §2

[7] = tested on: 4242Eμ-myc/Bcl-2 lymphomas; experiment: as above; conditions: 4242/Bcl-2
Method: as §5, §2

[8] = increasing concentrations over 24 h

## Oxamflatin
[1]; [8]
  plasma membrane integrity and mitochondrial function: unaffected
[1]; increasing doses
  cell cycle analysis: arrested in the G1 phase
[2]; 0.1 μmol/L, 72 h of continuous exposure
  cell killing in time course: conferred resistance to oxamflatin
[2]; 24-h dose-response assay, Bcl-2 overexpressing
  cell killing (outer cell membrane damage, loss of mitochondrial membrane potential): but not Eμ-myc/Bcl-2 lymphomas
[3]; 24-h dose-response assay
  cell killing (outer cell membrane damage, loss of mitochondrial membrane potential): could effectively kill
[3]; 24-h treatment
  concentration of HDACi required to kill ˜70% of Eμ-myc lymphomas following 24-h treatment: 0.1 µmol/L
[4]
  acetylation of histones H3 and H4: induced equivalent acetylation of histones H3 and H4
[5]; [8]
  plasma membrane integrity and mitochondrial function: dose-dependent loss of plasma membrane integrity and mitochondrial function
[5]; increasing doses
  cell cycle analysis: DNA fragmentation: DNA fragmentation occurred
[5]; parental Eμ-myc lymphomas, within the first 24 h, 3 nmol/L romidepsin or 0.1 μmol/L oxamflatin
  cell killing in time course: effectively killed
[6]; 24 hr
  % G1: 50.0%
  % G2/M: 28.8%
  % S phase: 14.4%
  % subG1: 2.7%
[6]; 48 hr
  % G1: 62.6%
  % G2/M: 21.4%
  % S phase: 10.8%
  % subG1: 2.6%
[6]; 72 hr
  % G1: 78.2%
  % G2/M: 12.0%
  % S phase: 2.5%
  % subG1: 6.5%
[7]; 24 hr
  % G1: 59.4%
  % G2/M: 18.0%
  % S phase: 8.2%
  % subG1: 8.4%
[7]; 48 hr
  % G1: 62.3%
  % G2/M: 15.3%
  % S phase: 8.4%
  % subG1: 5.9%
[7]; 72 hr
  % G1: 66.7%
  % G2/M: 15.8%
  % S phase: 9.7%
  % subG1: 4.6%
